25 compounds from PMC10480161, “Identification of potent and selective N-myristoyltransferase inhibitors of Plasmodium vivax liver stage hypnozoites and schizonts” (Nature Communications, 2023) can be followed below.

SMILES strings stand for the structures. Where “and” joins values, the source holds several entries; their conditions need not be identical. Equal values may be shown once. Read-outs that look alike come from different tables or passages of the source.

For orientation: IC50 means the concentration needed to halve the response being measured.

The target of one data set is PvNMT (Plasmodium vivax, UniProt A5K1A2). As to the kind of experiment: NMT activity assay (CPM detection of free CoA), PvNMT. The settings on record: for SI: enzyme selectivity, HsNMT IC50/PvNMT IC50.
Sequence of PvNMT (A5K1A2 entry or part of it): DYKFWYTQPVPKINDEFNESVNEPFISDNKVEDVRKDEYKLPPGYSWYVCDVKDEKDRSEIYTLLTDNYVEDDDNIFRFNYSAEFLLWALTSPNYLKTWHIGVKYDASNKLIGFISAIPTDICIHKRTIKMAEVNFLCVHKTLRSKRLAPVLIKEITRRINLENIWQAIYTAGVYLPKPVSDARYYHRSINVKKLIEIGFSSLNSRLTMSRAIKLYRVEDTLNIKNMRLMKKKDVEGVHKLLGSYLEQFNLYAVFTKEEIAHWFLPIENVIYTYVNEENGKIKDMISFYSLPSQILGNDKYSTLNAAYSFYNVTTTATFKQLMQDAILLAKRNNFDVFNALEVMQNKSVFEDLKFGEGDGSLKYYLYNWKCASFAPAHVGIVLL
A further data set has as its target T1, HsNMT1 (Homo sapiens, UniProt P30419).
T1 sequence (P30419 1-496): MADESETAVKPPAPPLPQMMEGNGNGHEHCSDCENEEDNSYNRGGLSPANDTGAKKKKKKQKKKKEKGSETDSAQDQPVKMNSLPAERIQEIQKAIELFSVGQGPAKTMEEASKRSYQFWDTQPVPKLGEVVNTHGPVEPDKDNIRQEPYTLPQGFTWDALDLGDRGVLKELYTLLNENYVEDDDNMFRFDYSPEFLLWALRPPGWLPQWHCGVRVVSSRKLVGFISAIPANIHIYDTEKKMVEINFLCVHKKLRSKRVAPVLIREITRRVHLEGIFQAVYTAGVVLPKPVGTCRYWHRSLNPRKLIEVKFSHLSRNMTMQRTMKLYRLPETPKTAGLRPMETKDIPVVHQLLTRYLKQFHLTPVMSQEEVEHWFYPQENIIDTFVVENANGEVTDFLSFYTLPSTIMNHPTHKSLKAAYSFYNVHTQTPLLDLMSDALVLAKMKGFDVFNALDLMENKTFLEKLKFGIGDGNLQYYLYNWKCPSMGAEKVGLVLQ
As to the kind of experiment: NMT activity assay (CPM detection of free CoA), HsNMT.

Another data set relates to P. vivax schizonts. As to the kind of experiment: P. vivax liver stage assay, schizonts. It counts as cell-based, Plasmodium vivax. Conditions: 20 µM; for Number of liverstage Schizonts per well: 8 dpi, listed as Pi4K. On the procedure: We next evaluated the candidate compounds against liver-stage P. vivax (Fig. 5). P. vivax sporozoites were obtained from three independent patient isolates and cultured in primary human hepatocytes from a single donor lot using a 384-well microculture system as described previously. Cells were infected and treated with NMTis at 20 µM beginning day 5 post-infection until day 8 when the infection rates were quantified by fluorescent microscopy.
Accordingly, we applied dose–response curves of all the tested NMTs on parasite isolates 2 and 3 over concentrations up to 20 µM (Fig. 5c, d, Source Data file). We observed similar kinetics for all inhibitors, with a gradual decrease in parasite load upon increasing the drug concentration. […] Nuclei were counted in each well using DAPI staining as a measure of toxicity (Supplementary Fig. 86, Supplementary Source data). We used the phosphatidylinositol 4-kinase inhibitor (PI4Ki), MMV390048, as a positive control for eliminating schizonts[37],[38].
Plasmodium vivax liver stage assays were performed as described previously. Cryopreserved primary human hepatocytes (Cat No. F00995-P) and hepatocyte culture medium (HCM) (InVitroGroTM CP Medium) were obtained from Bioreclamation IVT, Inc., (Baltimore, MD, USA). Briefly, we seeded 384-well plates with primary hepatocytes from a single donor lot at a density of 25,000 cells per well. We then infected the hepatocytes with 14,000 freshly hand-dissected sporozoites per well. Cells were exposed to the compounds at indicated concentrations from day 5 post-infection. We used Pi4K inhibitor MMV390048, at 20 µM, as a positive control to eliminate P. vivax liver schizonts. We then proceeded to feed cultures every day, replacing the compounds until day 8 post-infection. Cells were fixed with 4% PFA, permeabilized with 1% Triton X-100, blocked with 2% BSA, and stained with DAPI and PvUIS4 antibodies to detect schizonts and hypnozoites forms by confocal microscopy. For antibody dilutions, PvUIS4 (kind gift from Dr. Noah Sather, Seattle Children’s Research Institute) was diluted 1:250 and the secondary antibody was anti-mouse AlexaFluor-594 (Cat # A-11005; RRID: AB_2534073) diluted 1:1000. DAPI was diluted 1:2000. The images were processed, analyzed and outlier cells were removed using IMARIS (Bitplane Inc.) image analysis software.

A further data set relates to HepG2 cells. As to the kind of experiment: HepG2 cytotoxicity assay (Live/Dead staining). The settings on record: for Percentage of live HepG2 cells compared with diluent controls: replicates. On the procedure: Therefore, we assessed cytotoxicity in the human hepatoma HepG2 cell line. We required a PvNMT to HsNMT SI > 20 for further screening. HepG2 cells were exposed to the compounds at concentrations ranging from 1 to 20 µM for […], and toxicity was assessed via live-dead staining.
The viability of the HepG2 cell line following exposure to the compounds was determined by a Live/Dead cell assay kit (Invitrogen). Briefly, cells were added to a 96-well plate at a concentration of 5000 cells per well, excluding the exterior wells. Cells were exposed to the compounds at different concentrations ranging from 1 to 20 µM. Cells were washed every 24 h and supplemented with fresh doses of compounds. At 72 h post-treatment, 1 µM calcein-AM and 1 µM ethidium homodimer were added to the wells and incubated for 10 min at 37 °C. After washing with PBS, the cells were visualized with fluorescent microscopy (Keyence BZ-X700).

[1] abbreviates: PvNMT IC50, mean of two or more determinations.
The mark [2] stands for this setting: read-out: PvNMT IC50, mean of two or more determinations.
[3] abbreviates: read-out: HsNMT IC50, mean of two or more determinations.

As for `Cc1nn(C)c(C)c1CCOc1ccccc1-c1ccnc(N2CCNCC2)c1` [Compound 12c], the values for the IC50 on PvNMT (setting [1]) and against HsNMT1 were 0.00948 µM and 0.599 µM, respectively. This compound also yielded an SI at PvNMT of 63.1. Consider `c1cncc(CCOc2cccnc2-c2ccnc(N3CCNCC3)c2)c1` [Compound 12h], for which the IC50 against PvNMT (setting [1]) was 0.441 µM. Turning to `c1cncc(CCOc2ccccc2-c2cccc(N3CCNCC3)c2)c1` [Compound 12i], half-maximal inhibition against PvNMT (setting [1]) (IC50) was put at 1.54 µM. On PvNMT (setting [1]), `Fc1ccc(-c2cccc(N3CCNCC3)c2)c(OCCc2cccnc2)c1` [Compound 12k] gave an IC50 of 3.12 µM.

In the case of `Cc1n[nH]c(C)c1CCOc1cccnc1-c1cccc(N2CCNCC2)c1` [Compound 12m], at PvNMT (setting [1]), half-maximal inhibition (IC50) required 12.5 µM. For `Cc1n[nH]c(C)c1CCOc1ccccc1-c1ccnc(N2CCNCC2)c1` [Compound 12n], the IC50 is 0.604 µM at PvNMT (setting [1]) and 39.7 µM at HsNMT1. At PvNMT, this compound gave an SI of 65.7. For the compound `Cc1n[nH]c(C)c1CCOc1cccnc1-c1ccnc(N2CCNCC2)c1` [Compound 12o], the IC50 at PvNMT (setting [2]) is 3.12 µM.

As for `Cc1n[nH]c(C)c1CCOc1cc(F)ccc1-c1cccc(N2CCNCC2)c1` [Compound 12p], the IC50 against PvNMT (setting [1]) is 0.368 µM; on HsNMT1, 23.1 µM. For the same compound, the SI on PvNMT was found to be 62.7.

Compound `Cc1nn(C)c(C)c1CCOc1ccccc1-c1cc(N2CCNCC2)ncn1` [Compound 16a] returned an IC50 at PvNMT (setting [1]) of 9.39 µM.

Turning to `Cc1nn(C)c(C)c1CCOc1cc(F)ccc1-c1cc(N2CCNCC2)ncn1` [Compound 16b], at PvNMT, the SI is 164 and 164.4. Besides, the IC50 on PvNMT (setting [2]) amounted to 0.168 µM; at HsNMT1 (setting [3]), 27.6 µM. In turn, `Fc1ccc(-c2cc(N3CCNCC3)ncn2)c(OCCc2cccnc2)c1` [Compound 16d] gave an IC50 on PvNMT (setting [1]) of 3.39 µM. For `Cc1n[nH]c(C)c1CCOc1cc(F)ccc1-c1cc(N2CCNCC2)ncn1` [Compound 16e], at PvNMT (setting [2]), the IC50 is 5.07 µM. `Cc1n[nH]c(C)c1CCOc1ccccc1-c1cc(N2CCNCC2)ncn1` [Compound 16f] showed an IC50 against PvNMT (setting [1]) of 14 µM. Still for that read-out and setting: as for `Cc1nn(C)c(C)c1CCOc1cccnc1-c1cccc(OCCN(C)C)c1` [Compound 26a], the figure is 0.266 µM; as for `CN(C)CCOc1cccc(-c2ncccc2OCCc2cccnc2)c1` [Compound 26d], 14.8 µM; as for `CN(C)CCOc1cccc(-c2ccccc2OCCc2cccnc2)c1` [Compound 26e], 12.8 µM. In the case of `CN(C)CCOc1cccc(-c2ccc(F)cc2OCCc2cccnc2)c1` [Compound 26f], the IC50 was 0.622 µM at PvNMT (setting [2]) and above 40 µM at HsNMT1 (setting [3]). Turning to `Cc1n[nH]c(C)c1CCOc1cccnc1-c1cccc(OCCN(C)C)c1` [Compound 26g], the IC50 at PvNMT (setting [1]) came out at 19.4 µM. `Cc1n[nH]c(C)c1CCOc1ccccc1-c1cccc(OCCN(C)C)c1` [Compound 26h] came in with an IC50 at PvNMT (setting [1]) of 1.56 µM.

On PvNMT (setting [1]), `Cc1nn(C)c(C)c1CCOc1ccc2ccccc2c1-c1cccc(OCCN(C)C)c1` [Compound 30b] returned an IC50 of 19.8 µM.

`CN(C)CCOc1cccc(-c2c(OCCc3cccnc3)ccc3ccccc23)c1` [Compound 30d] came in with an IC50 against PvNMT (setting [1]) of 7.21 µM. On to `Cc1n[nH]c(C)c1CCOc1ccc2ccccc2c1-c1ccnc(N2CCNCC2)c1` [Compound 30e], for which, at PvNMT (setting [1]), the midpoint of inhibition, the IC50, lay at 2.88 µM. For `Cc1n[nH]c(C)c1CCOc1ccc2ccccc2c1-c1cccc(OCCN(C)C)c1` [Compound 30f], the IC50 against PvNMT (setting [1]) amounted to 25.4 µM. Regarding `CS(=O)(=O)c1ccc(-c2cnc(N)c(-c3ccc(C(F)(F)F)nc3)c2)cc1` [MMV390048, reference compound], the “Number of liverstage Schizonts per well” value in the data set on P. vivax schizonts (isolate 2, technical replicates (Fig. 5b)) was 0 per well and 1 per well (2×); in the data set on P. vivax schizonts (isolate 3, technical replicates (Fig. 5b)) it was 2 per well and 1 per well. Also, in the data set on P. vivax schizonts (positive control), the “number of schizonts per well (in words)” value was “dramatically reduced the number of schizonts per well”.

On to `CN[C@@H]1C[C@H]2O[C@@](C)([C@@H]1OC)n1c3ccccc3c3c4c(c5c6ccccc6n2c5c31)C(=O)NC4` [staurosporine, Staurosporine, reference compound], for which the “Percentage of live HepG2 cells compared with diluent controls” value was 95.8547% and 101.587% in the data set with HepG2 cells (1 μM); 98.2188% and 92.7655% in the data set on HepG2 cells (2.5 μM); 90.1576% and 84.8522% in the data set on HepG2 cells (5 μM); 76.1985% and 71.2598% with HepG2 cells (10 μM); 50.831% and 59.1843% in the data set with HepG2 cells (20 μM). In the data set on HepG2 cells (at 10–20 µM, positive control), the “HepG2 cell viability (in words)” value is “reduced the cell viability”.
